Laboratory results published in PubChem BioAssay AID1259407 (Chemical Carcinogenesis Research Information System (CCRIS), 2018).
Calls of active or inactive are those of the source. The rule behind the calls is not given here.

Tested on: CCRIS mutagenicity, Ames/micronucleus/aberration tests
Experiment: CCRIS mutagenicity studies
[1] = Test System: AMES SALMONELLA TYPHIMURIUM, Strain/Indicator: TA98, Metabolic Activation: NONE, Method: STANDARD PLATE
[2] = Test System: AMES SALMONELLA TYPHIMURIUM, Strain/Indicator: TA100, Metabolic Activation: NONE, Method: STANDARD PLATE
[3] = Test System: AMES SALMONELLA TYPHIMURIUM, Strain/Indicator: TA100, Metabolic Activation: NONE, Method: PREINCUBATION
[4] = Test System: AMES SALMONELLA TYPHIMURIUM, Strain/Indicator: TA98, Metabolic Activation: HAMSTER, LIVER, S-9, AROCLOR 1254, Method: STANDARD PLATE
[5] = Test System: AMES SALMONELLA TYPHIMURIUM, Strain/Indicator: TA98, Metabolic Activation: RAT, LIVER, S-9, AROCLOR 1254, Method: STANDARD PLATE
[6] = Test System: AMES SALMONELLA TYPHIMURIUM, Strain/Indicator: TA100, Metabolic Activation: HAMSTER, LIVER, S-9, AROCLOR 1254, Method: STANDARD PLATE
[7] = Test System: AMES SALMONELLA TYPHIMURIUM, Strain/Indicator: TA100, Metabolic Activation: RAT, LIVER, S-9, AROCLOR 1254, Method: STANDARD PLATE
[8] = Test System: AMES SALMONELLA TYPHIMURIUM, Strain/Indicator: TA1535, Metabolic Activation: HAMSTER, LIVER, S-9, AROCLOR 1254, Method: STANDARD PLATE
[9] = Test System: AMES SALMONELLA TYPHIMURIUM, Strain/Indicator: TA1535, Metabolic Activation: NONE, Method: STANDARD PLATE
[10] = Test System: AMES SALMONELLA TYPHIMURIUM, Strain/Indicator: TA1535, Metabolic Activation: RAT, LIVER, S-9, AROCLOR 1254, Method: STANDARD PLATE
[11] = Test System: AMES SALMONELLA TYPHIMURIUM, Strain/Indicator: TA1537, Metabolic Activation: HAMSTER, LIVER, S-9, AROCLOR 1254, Method: STANDARD PLATE
[12] = Test System: AMES SALMONELLA TYPHIMURIUM, Strain/Indicator: TA1537, Metabolic Activation: NONE, Method: STANDARD PLATE
[13] = Test System: AMES SALMONELLA TYPHIMURIUM, Strain/Indicator: TA1537, Metabolic Activation: RAT, LIVER, S-9, AROCLOR 1254, Method: STANDARD PLATE
[14] = Test System: AMES SALMONELLA TYPHIMURIUM, Strain/Indicator: TA1538, Metabolic Activation: HAMSTER, LIVER, S-9, AROCLOR 1254, Method: STANDARD PLATE
[15] = Test System: AMES SALMONELLA TYPHIMURIUM, Strain/Indicator: TA1538, Metabolic Activation: NONE, Method: STANDARD PLATE
[16] = Test System: AMES SALMONELLA TYPHIMURIUM, Strain/Indicator: TA1538, Metabolic Activation: RAT, LIVER, S-9, AROCLOR 1254, Method: STANDARD PLATE
[17] = Test System: MOUSE LYMPHOMA, Strain/Indicator: L5178Y (TK+/TK-), Metabolic Activation: NONE, Method: SUSPENSION/PLATE

## CCCC(c1cc(C(C)(C)C)c(O)cc1C)c1cc(C(C)(C)C)c(O)cc1C
[1]
  mutagenic call: inactive; negative
Test System: AMES SALMONELLA TYPHIMURIUM, Strain/Indicator: TA98, Metabolic Activation: S-9, Method: STANDARD PLATE
  mutagenic call: inactive; negative
[2]
  mutagenic call: inactive; negative
Test System: AMES SALMONELLA TYPHIMURIUM, Strain/Indicator: TA100, Metabolic Activation: S-9, Method: STANDARD PLATE
  mutagenic call: inactive; negative

## Fc1cc2cccnc2c(F)c1F
Test System: AMES SALMONELLA TYPHIMURIUM, Strain/Indicator: TA100, Metabolic Activation: RAT LIVER S-9, PHENOBARBITAL AND 5,6-BENZOFLAVONE, Method: PREINCUBATION
  mutagenic call: inactive; negative

## Oc1ccc(Cl)cc1Cc1cc(Cl)ccc1O
Test System: AMES SALMONELLA TYPHIMURIUM, Strain/Indicator: TA98, Metabolic Activation: HAMSTER, LIVER, S-9, AROCLOR 1254 (30%), Method: PREINCUBATION
  mutagenic call: inactive; negative
Test System: AMES SALMONELLA TYPHIMURIUM, Strain/Indicator: TA98, Metabolic Activation: NONE, Method: PREINCUBATION
  mutagenic call: inactive; negative
Test System: AMES SALMONELLA TYPHIMURIUM, Strain/Indicator: TA98, Metabolic Activation: RAT, LIVER, S-9, AROCLOR 1254 (30%), Method: PREINCUBATION
  mutagenic call: inactive; negative
[3]
  mutagenic call: inactive; negative
Test System: AMES SALMONELLA TYPHIMURIUM, Strain/Indicator: TA1535, Metabolic Activation: HAMSTER, LIVER, S-9, AROCLOR 1254 (30%), Method: PREINCUBATION
  mutagenic call: inactive; negative

## O=[N+]([O-])c1ccc(-c2nc(NCCO)c3ccccc3n2)s1
[1]
  mutagenic call: active; positive
[2]
  mutagenic call: active; positive

## OCCCc1ccccc1
[4]
  mutagenic call: inactive; negative
[1]
  mutagenic call: inactive; negative
[5]
  mutagenic call: inactive; negative
[6]
  mutagenic call: inactive; negative
[2]
  mutagenic call: inactive; negative
[7]
  mutagenic call: inactive; negative
[8]
  mutagenic call: inactive; negative
[9]
  mutagenic call: inactive; negative
[10]
  mutagenic call: inactive; negative
[11]
  mutagenic call: inactive; negative
[12]
  mutagenic call: inactive; negative
[13]
  mutagenic call: inactive; negative
[14]
  mutagenic call: inactive; negative
[15]
  mutagenic call: inactive; negative
[16]
  mutagenic call: inactive; negative
[17]
  mutagenic call: inactive; negative. reevaluation of results: negative
Test System: MOUSE LYMPHOMA, Strain/Indicator: L5178Y (TK+/TK-), Metabolic Activation: RAT, LIVER, S-9, AROCLOR 1254, Method: SUSPENSION/PLATE
  mutagenic call: inactive; negative. reevaluation of results: negative

## Nc1ccccc1C(=O)C[C@H](N)C(=O)O
[3]
  mutagenic call: inactive; negative

## CC1(C(=O)NCc2ccccc2)CO1 (stereo not given)
Test System: AMES SALMONELLA TYPHIMURIUM, Strain/Indicator: TA100, Metabolic Activation: MOUSE, LIVER, S-9, AROCLOR 1254, Method: STANDARD PLATE
  mutagenic call: active; positive
[2]
  mutagenic call: active; positive

## Nc1n[nH]c(=S)s1
[4]
  mutagenic call: inactive; negative
[1]
  mutagenic call: inactive; negative
[5]
  mutagenic call: inactive; negative
[6]
  mutagenic call: inactive; negative
[2]
  mutagenic call: inactive; negative
[7]
  mutagenic call: inactive; negative
[8]
  mutagenic call: inactive; negative
[9]
  mutagenic call: inactive; negative
[10]
  mutagenic call: inactive; negative
[11]
  mutagenic call: inactive; negative
[12]
  mutagenic call: inactive; negative
[13]
  mutagenic call: inactive; negative
[14]
  mutagenic call: inactive; negative
[15]
  mutagenic call: inactive; negative
[16]
  mutagenic call: inactive; negative
[17]
  mutagenic call: active; positive. reevaluation of results: positive
Test System: Mouse lymphoma, Strain/Indicator: L5178Y (tk+/tk-), Metabolic Activation: Rat, Liver, S-9, Aroclor 1254, Method: Suspension/plate
  mutagenic call: inactive; negative

## O=C(c1ccccc1)n1ncc(Cl)c(Cl)c1=O
[1]
  mutagenic call: inactive; negative
[5]
  mutagenic call: inactive; negative
[2]
  mutagenic call: inactive; negative
[7]
  mutagenic call: inactive; negative
[9]
  mutagenic call: inactive; negative
[10]
  mutagenic call: inactive; negative
[12]
  mutagenic call: inactive; negative
[13]
  mutagenic call: inactive; negative

## O=C1CNC(=O)N1
Test System: AMES SALMONELLA TYPHIMURIUM, Strain/Indicator: TA97, Metabolic Activation: NONE, Method: STANDARD PLATE
  mutagenic call: inactive; negative
Test System: AMES SALMONELLA TYPHIMURIUM, Strain/Indicator: TA97, Metabolic Activation: RAT, LIVER, S-9, AROCLOR 1254, Method: STANDARD PLATE
  mutagenic call: inactive; negative
[1]
  mutagenic call: inactive; negative
[5]
  mutagenic call: inactive; negative
[2]
  mutagenic call: inactive; negative
[7]
  mutagenic call: inactive; negative
Test System: AMES SALMONELLA TYPHIMURIUM, Strain/Indicator: TA102, Metabolic Activation: NONE, Method: STANDARD PLATE
  mutagenic call: inactive; negative
Test System: AMES SALMONELLA TYPHIMURIUM, Strain/Indicator: TA102, Metabolic Activation: RAT, LIVER, S-9, AROCLOR 1254, Method: STANDARD PLATE
  mutagenic call: inactive; negative
